# Measured values taken from patent publication US10576062B2, “Carbamoyloxymethyl triazole cyclohexyl acids as LPA antagonists” (Bristol-Myers Squibb Company, priority 2016, dated 2020).
# pIC50: −log10 of the molar value.
# Biological target: T1, human LPA1 (Homo sapiens, UniProt Q92633)
# T1 construct: expressed in transfected cells; host or cells: Chinese hamster ovary (CHO) cells
# Assay: LPA1 functional antagonist assay (LPA-induced calcium flux)
# Assay type: cell-based
# Conditions: CHO cells overexpressing human LPA1; inhibition of calcium flux induced by 10 nM LPA; read-out: hLPA1 IC50
# Method: The effectiveness of compounds of the present invention as LPA1 inhibitors can be determined in an LPA1 functional antagonist assay as follows: Chinese hamster ovary cells overexpressing human LPA1 were plated overnight (15,000 cells/well) in poly-D-lysine coated 384-well microplates (Greiner bio-one, Cat #781946) in DMEM/F12 medium (Gibco, Cat #11039). Following overnight culture, cells were loaded with calcium indicator dye (AAT Bioquest Inc, Cat #34601) for 30 minutes at 37° C. The cells were then equilibrated to room temperature for 30 minutes before the assay. Test compounds solubilized in DMSO were transferred to 384 well non-binding surface plates (Corning, Cat #3575) using the Labcyte Echo acoustic dispense and diluted with assay buffer [1×HBSS with calcium/magnesium (Gibco Cat #14025-092), 20 mM HEPES (Gibco Cat #15630-080) and 0.1% fatty acid free BSA (Sigma Cat #A9205)] to a final concentration of 0.5% DMSO. Diluted compounds were added to the cells by FDSS6000 (Hamamatsu) at final concentrations ranging from 0.08 nM to 5 μM. and were then incubated for 20 min at room temperature at which time LPA (Avanti Polar Lipids Cat #857130C) was added at final concentrations of 10 nM to stimulate the cells. […] IC50 values were determined by fitting data to a 4-parameter logistic equation (GraphPad Prism, San Diego Calif.).
# T1 sequence (Q92633 whole entry): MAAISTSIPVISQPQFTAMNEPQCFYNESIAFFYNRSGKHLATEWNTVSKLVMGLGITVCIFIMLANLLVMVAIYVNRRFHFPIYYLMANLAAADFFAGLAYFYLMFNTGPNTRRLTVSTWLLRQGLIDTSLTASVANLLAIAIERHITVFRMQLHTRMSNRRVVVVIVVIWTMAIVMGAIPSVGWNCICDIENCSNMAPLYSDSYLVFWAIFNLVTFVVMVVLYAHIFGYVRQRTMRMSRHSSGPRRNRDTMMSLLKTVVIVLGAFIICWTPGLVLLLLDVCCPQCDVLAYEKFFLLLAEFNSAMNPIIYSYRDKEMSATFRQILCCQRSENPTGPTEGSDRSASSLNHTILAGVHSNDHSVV
row,Compound,pIC50
1,"Cc1nc(-c2nnn(C)c2COC(=O)N(C)CC(C)(F)F)ccc1O[C@H]1CCC[C@H](C(=O)O)C1 [Example 259, (1S,3 S)-3-((6-(5-((((2,2-difluoropropyl)(methyl)carbamoyl)oxy)methyl)-1-methyl-1H-1,2,3-triazol-4-yl)-2-methylpyridin-3-yl)oxy)cyclohexane-1-carboxylic Acid]",6.87
2,"Cc1nc(-c2nnn(C)c2COC(=O)N(C)CC2CCC2)ccc1O[C@H]1CCC[C@H](C#N)C1 [Example 15, (4-(5-(((1S,3S)-3-cyanocyclohexyl)oxy)-6-methylpyridin-2-yl)-1-methyl-1H-1,2,3-triazol-5-yl)methyl (cyclobutylmethyl)(methyl)carbamate]",5.43
3,"CN(CCC1CC1)C(=O)OCc1c(-c2ccc(O[C@H]3CCC[C@H](C(=O)O)C3)cn2)nnn1C [Example 3, (1S,3S)-3-((6-(5-((((2-cyclopropylethyl)(methyl)carbamoyl)oxy)methyl)-1-methyl-1H-1,2,3-triazol-4-yl)pyridin-3-yl)oxy)cyclohexane-1-carboxylic Acid]",7.72
4,"COCc1nc(-c2nnn(C)c2COC(=O)N(C)C2CCCC2)ccc1O[C@H]1CCC[C@H](C(=O)O)C1 [Example 287, (1S,3S)-3-((6-(5-(((cyclopentyl(methyl)carbamoyl)oxy)methyl)-1-methyl-1H-1,2,3-triazol-4-yl)-2-(methoxymethyl)pyridin-3-yl)oxy)cyclohexane-1-carboxylic acid]",6.93
5,"CN(CC1CCC1)C(=O)OCc1c(-c2ccc(O[C@H]3CCC[C@H](C(=O)O)C3)c(CF)n2)nnn1C [Example 266, (1S,3 S)-3-((6-(5-((((cyclobutylmethyl)(methyl)carbamoyl)oxy)methyl)-1-methyl-1H-1,2,3-triazol-4-yl)-2-(fluoromethyl)pyridin-3-yl)oxy)cyclohexane-1-carboxylic Acid]",7.57
6,"CCCCN(C)C(=O)OCc1c(-c2ccc(O[C@H]3CCC[C@H](C(=O)O)C3)c(CC)n2)nnn1C [Example 199, (1S,3S)-3-((6-(5-(((butyl(methyl)carbamoyl)oxy)methyl)-1-methyl-1H-1,2,3-triazol-4-yl)-2-ethylpyridin-3-yl)oxy)cyclohexane-1-carboxylic acid]",8.15

# Same assay, conditions: human LPA1; read-out: hLPA1 IC50
row,Compound,pIC50
1,"CCCN(C)C(=O)OCc1c(-c2ccc(O[C@H]3CCC[C@H](C(=O)O)C3)cn2)nnn1C [Example 173, (1S,3S)-3-((6-(1-methyl-5-(((methyl(propyl)carbamoyl)oxy)methyl)-1H-1,2,3-triazol-4-yl)pyridin-3-yl)oxy)cyclohexane-1-carboxylic acid]",6.88
2,"Cc1nc(-c2nnn(C)c2COC(=O)N2C3CCC2CC3)ccc1O[C@H]1CCC[C@H](C(=O)O)C1 [Example 167, (1S,3S)-3-((6-(5-(((-7-azabicyclo[2.2.1]heptane-7-carbonyl)oxy)methyl)-1-methyl-1H-1,2,3-triazol-4-yl)-2-methylpyridin-3-yl)oxy)cyclohexane-1-carboxylic acid]",6.50
3,"Cc1nc(-c2nnn(C)c2COC(=O)N(C)C2CC3(CC3)C2)ccc1O[C@H]1CCC[C@H](C(=O)O)C1 [Example 179, (1S,3S)-3-((2-methyl-6-(1-methyl-5-(((methyl(spiro[2.3]hexan-5-yl)carbamoyl)oxy)methyl)-1H-1,2,3-triazol-4-yl)pyridin-3-yl)oxy)cyclohexane-1-carboxylic acid]",7.85
4,"Cc1nc(-c2nnn(C)c2COC(=O)N(C)C2CC(C)(C)C2)ccc1O[C@H]1CCC[C@H](C(=O)O)C1 [Example 168, (1S,3S)-3-((6-(5-((((3,3-dimethyl-cyclobutyl)(methyl)carbamoyl)oxy)methyl)-1-methyl-1H-1,2,3-triazol-4-yl)-2-methylpyridin-3-yl)oxy)cyclohexane-1-carboxylic acid]",7.54

# Same assay, conditions: read-out: hLPA1 IC50
row,Compound,pIC50
1,"CCC(CC)N(C)C(=O)OCc1c(-c2ccc(O[C@H]3CCC[C@H](C(=O)O)C3)c(C)n2)nnn1C [Example 83, (1S,3S)-3-((2-Methyl-6-(1-methyl-5-(((methyl(pentan-3-yl)carbamoyl)oxy)methyl)-1H-1,2,3-triazol-4-yl)pyridin-3-yl)oxy)cyclohexanecarboxylic acid]",7.04
2,"CC(C1CC1)N(C)C(=O)OCc1c(-c2ccc(O[C@H]3CCC[C@H](C(=O)O)C3)cc2)nnn1C (mixture of isomers) [Example 65, trans-3-(4-(5-((((1-cyclopropylethyl)(methyl)carbamoyl)oxy)methyl)-1-methyl-1H-1,2,3-triazol-4-yl)phenoxy)cyclohexane-1-carboxylic acid]",7.10
3,"CCCC1(N(C)C(=O)OCc2c(-c3ccc(O[C@H]4CCC[C@H](C(=O)O)C4)c(C)n3)nnn2C)CC1 [Example 87, (1S,3S)-3-((2-methyl-6-(1-methyl-5-(((methyl(1-propylcyclopropyl)carbamoyl)oxy)methyl)-1H-1,2,3-triazol-4-yl)pyridin-3-yl)oxy)cyclohexane-1-carboxylic acid]",7.44
4,"Cc1nc(-c2nnn(C)c2COC(=O)N(C)[C@H](C)c2ccccc2)ccc1O[C@H]1CCC[C@H](C(=O)O)C1 [Example 19, (1S,3S)-3-((2-methyl-6-(1-methyl-5-(((methyl((R)-1-phenylethyl)carbamoyl)oxy)methyl)-1H-1,2,3-triazol-4-yl)pyridin-3-yl)oxy)cyclohexane-1-carboxylic acid]",7.77
5,"[2H]C([2H])([2H])n1nnc(-c2ccc(O[C@H]3CCC[C@H](C(=O)O)C3)cn2)c1COC(=O)N(C)CC1CC1 [Example 110, (1S,3S)-3-((6-(5-((((cyclopropylmethyl)(methyl)carbamoyl)oxy)methyl)-1-(methyl-d3)-1H-1,2,3-triazol-4-yl)pyridin-3-yl)oxy)cyclohexane-1-carboxylic acid]",7.51
6,"Cc1nc(-c2nnn(C)c2COC(=O)N(C)Cc2ccccc2F)ccc1O[C@H]1CCC[C@H](C(=O)O)C1 [Example 98, (1S,3S)-3-((6-(5-((((2-fluorobenzyl)(methyl)carbamoyl)oxy)methyl)-1-methyl-1H-1,2,3-triazol-4-yl)-2-methylpyridin-3-yl)oxy)cyclohexane-1-carboxylic acid]",7.72
7,"CCCC1(N(C)C(=O)OCc2c(-c3ccc(O[C@H]4CCC[C@H](C(=O)O)C4)c(C)n3)nnn2C)CCC1 [Example 132, (1S,3S)-3-((2-methyl-6-(1-methyl-5-(((methyl(1-propylcyclobutyl)carbamoyl)oxy)methyl)-1H-1,2,3-triazol-4-yl)pyridin-3-yl)oxy)cyclohexane-1-carboxylic acid]",6.74
8,"[2H]C([2H])([2H])n1nnc(-c2ccc(O[C@H]3CCC[C@H](C(=O)O)C3)cn2)c1COC(=O)N(C)CCCC [Example 112, (1S,3S)-3-((6-(5-(((butyl(methyl)carbamoyl)oxy)methyl)-1-(methyl-d3)-1H-1,2,3-triazol-4-yl)pyridin-3-yl)oxy)cyclohexane-1-carboxylic acid]",7.77

# Results, then the molecule that gave them:
row,pIC50,Compound
1,7.39,"Cc1nc(-c2nnn(C)c2COC(=O)N(C)[C@H](C)C2CC2)ccc1O[C@H]1CCC[C@H](C(=O)O)C1 [Example 29, (1S,3S)-3-((6-(5-(((((R)-1-cyclopropylethyl)(methyl)carbamoyl)oxy)methyl)-1-methyl-1H-1,2,3-triazol-4-yl)-2-methylpyridin-3-yl)oxy)cyclohexane-1-carboxylic acid]"
2,6.97,"Cc1nc(-c2nnn(C)c2COC(=O)NCC2CCC2)ccc1O[C@H]1CCC[C@H](C(=O)O)C1 [Example 108, (1S,3S)-3-((6-(5-((((cyclobutylmethyl)carbamoyl)oxy)methyl)-1-methyl-1H-1,2,3-triazol-4-yl)-2-methylpyridin-3-yl)oxy)cyclohexane-1-carboxylic acid]"
3,6.61,"Cc1nc(-c2nnn(C)c2COC(=O)N(C)C2(CC(C)C)CC2)ccc1O[C@H]1CCC[C@H](C(=O)O)C1 [Example 130, (1S,3S)-3-((6-(5-((((1-isobutylcyclopropyl)(methyl)carbamoyl)oxy)methyl)-1-methyl-1H-1,2,3-triazol-4-yl)-2-methylpyridin-3-yl)oxy)cyclohexane-1-carboxylic acid]"
4,6.74,"Cc1nc(-c2nnn(C)c2COC(=O)N2CCC3CCCC32)ccc1O[C@H]1CCC[C@H](C(=O)O)C1 (stereo partly drawn) [Example 149, (1S,3S)-3-((2-methyl-6-(1-methyl-5-(((octahydrocyclopenta[b]pyrrole-1-carbonyl)oxy)methyl)-1H-1,2,3-triazol-4-yl)pyridin-3-yl)oxy)cyclohexane-1-carboxylic acid]"
5,7.17,"Cc1nc(-c2nnn(C)c2COC(=O)N(C)C2(C)CC(C)C2)ccc1O[C@H]1CCC[C@H](C(=O)O)C1 (single isomer, unassigned) [Example 106]"
6,6.19,"Cc1nc(-c2nnn(C)c2COC(=O)N2CCOCC2)ccc1O[C@H]1CCC[C@H](C(=O)O)C1 [Example 114, (1S,3S)-3-((2-methyl-6-(1-methyl-5-(((morpholine-4-carbonyl)oxy)methyl)-1H-1,2,3-triazol-4-yl)pyridin-3-yl)oxy)cyclohexane-1-carboxylic acid]"
